Patent US11339124B2, “3-(benzylamino)-4-(cyclohexylamino)-n-(2-(piperazin-1-yl)ethyl)benzenesulfonamide derivatives and related ferrostatin-1 analogues as cell death inhibitors for treating e.g. stroke” (VIB VZW, priority 2018, dated 2022)
Where “and” joins values, the source holds several entries; their conditions need not be identical. Equal values may be shown once. Entries after “also recorded” stand apart in the source; their conditions may differ. Read-outs that look alike come from different tables or passages of the source. Marks after values point to notes of the source that are not given here.

What was measured:
[1] = system: IMR-32 Neuroblastoma cells; assay: Erastin-induced ferroptosis in IMR-32 neuroblastoma cells (Sytox Green cell death readout); format: cell-based; conditions: Homo sapiens; IMR-32 cells, 10 μM erastin, compounds 1 nM to 1 μM, triplicate; read-out: IC50, antiferroptotic activity in response to erastin-induced ferroptosis
Method: In the present invention the potency of a compound inhibiting (or reducing) ferroptosis and/or oxytosis are determined in in vitro or in vivo assays. Typically in vitro assays are used to measure the potency of a candidate compound. Examples of suitable in vitro assays are cellular assays. One non-limiting example of an assay involves the use of the IMR-32 neuroblastoma cell line. The latter is stimulated to enter into ferroptosis upon stimulation with 10 μM erastin, a documented ferroptosis inducer (see for example Dixon et al (2012) Cell 149, 1060-1072 and ferroptosis inhibitors are evaluated for the prevention of erastin induced ferroptosis. Yet another assay is based the glutamate-induced cell death in the hippocampal cell line HT22 and ferroptosis/oxytosis inhibitors are evaluated for the prevention of cell death (see Henke N. et al (2013) Cell Death and Disease 4, e470). Still another assay is based on the sorafinib induced cell death (described to be iron dependent cell death) in hepatocellular carcinoma cells and ferroptosis inhibitors are evaluated for the prevention of cell death (see Louandre C. et al (2013) Int. J. Cancer 133, 1732). The calculated potency of a compound inhibiting ferroptosis and/or oxytosis is typically depicted as an IC50 value. Examples of suitable in vivo assays are typically pre-clinical disease models of for example mice for the diseases benefiting the application of ferroptosis and/or oxytosis inhibitors, as described herein. One non-limiting example of an in vivo assay is based on inducing liver damage in mice by administering the herbicide diquat dibromide monohydrate and ferroptosis inhibitors are evaluated based on reduced levels of liver transaminases in serum (see Ran Q et al (2004) J. Biol. Chem. 279, 53, 55137).
The IC50 values for the individual compounds of the invention were determined in the neuroblastoma, IMR-32 cell line. In brief, IMR-32 cells were subjected to 10 μM erastin, the latter compound is known to induce ferroptosis. A concentration gradient (ranging from 1 nM to 1 μM) of the compounds was applied to the cells. These experiments were performed in a 96-well format (in triplicate), and cell death was analyzed in a fluorescent plate reader by use of a fluorescent cell death dye (1.5 μM Sytox Green). The IC50 values depicted in Table 1 are the concentration values for the individual compounds which are able to overcome ferroptosis.

[2] = Microsomal (metabolic) stability, mouse liver microsomes; conditions: pH 7.4
Source text: By using the measured microsomal in vitro t1/2, a calculated value for the intrinsic clearance Clint can be determined. This value states the measure in which a drug that is not bound to plasma proteins is irreversibly removed from the body by the liver. This value is expressed in mL/min/kg which can be interpreted as the volume of blood in mL that is cleared of a drug per minute per kilogram of body weight. The CLint is less sensitive to used variables in ADME assays since the amount of microsomal protein and the volume of the incubation are all taken into account. (Sohlenius-Sternbeck et al., Xenobiotica, 2012, 42, 841-853)
Liver microsomes (20 mg protein/ml), NADPH regenerating system solutions A & B and 5 mM stock compound solution (100% DMSO) are prepared. The reaction mixture finally contains 713 μL purified water, 200 μL 0.5 M potassium phosphate pH 7.4, 50 μL NADPH regenerating system solution A (BD Biosciences Cat. No. 451220), 10 μL NADPH regenerating system solution B (BD Biosciences Cat. No. 451200) and 2 μL of the compound stock solution (10 μM final concentration). The reaction mixture is warmed to 37° C. for 5 minutes in a water bath and the reaction is initiated by addition of 25 μL of liver microsomes (0.5 mg protein/ml final concentration). At different time points (0 min-15 min-30 min-60 min-120 min-240 min-360 min-24 h), 20 μL is withdrawn and 80 μL cold acetonitrile is added on ice for 10 minutes. Then the mixtures are centrifuged at 13 000 rpm for 5 min at 4° C. The supernatant is further diluted in 90% water/MeCN (1/25) to fall within the range of the LC/MS/MS analysis. At each time point, the compound is analysed using LC/MS/MS with the same UPLC system as described above. A standard curve of six points was made to fit the measured concentrations. Verapamil was used as a positive control.
All obtained readouts were processed using Microsoft Excel. In order to determine the microsomal half-life t1/2 of the compounds, the rate constant k was determined by plotting the exponential decay graphs using GraFit. Microsomal t1/2 was determined using the following formula: […]

[3] = Tissue distribution in rats 24 h after iv dose; format: in vivo; conditions: rat, 5 mg/kg iv; for concentration at 24 h: male, Wistar, iv
Method: To assess the extent of tissue distribution of compound 39, various organs (liver, kidney and lungs) of all three rats were collected on ice at necropsy 24 hours after administration before being homogenized and analyzed.
Each rat received an iv dose at 5 mg/kg and the internal organs were collected at narcopsy at 24 h. The organs were homogenized and further processed by protein precipitation (n=3) and centrifugation. Analysis of the samples was conducted by LC-MS.
Tissues (liver, kidneys and lungs) were collected on ice at necropsy at 24 h (after prior exsanguination), homogenized using a gentle MACS™ Dissociator and stored at −80° C. until analysis. The tissue samples for LC-MS were further processed by protein precipitation (n=3) by diluting 20 μL of the homogenate with 80 μL ACN containing IS (tolbutamide). After centrifugation, the supernatant was further diluted in the appropriate solvent.

[4] = system: experimental autoimmune encephalomyelitis model; assay: Experimental autoimmune encephalomyelitis (EAE) model, therapeutic intervention; format: in vivo; conditions: C57BL/6N male mice, daily ip from clinical score 2, scale 0 to 6 (FIG. 6); Hydrochloride
Method: 9-10-week-old C57BL/6N male mice were immunized subcutaneously with an emulsion of (MOG) 35-55 peptide (10 mg/kg) and CFA supplemented with Mycobacterium tuberculosis H37RA (50 mg/kg). The mice received an intraperitoneal injection of pertussis toxin (5 ug/kg) at the time of immunization and 48 h later. In a therapeutic procedure, mice that reached the clinical sore of 2 were injected intraperitoneally every day with equimolar amounts of Fer-1, compound 39, Liproxtatin-1 or vehicle (˜1-mg/kg) and were scored daily. Clinical signs of disease were scored on a scale of 0 to 6, as follows: 0, normal; 1, weakness of tail; 2, complete loss of tail tonicity; 3, partial hind limb paralysis; 4, complete hind limb paralysis; 5, forelimb paralysis or moribund; and 6, death (McGuire C et al (2013) J. Immunol. 190(6): 2896).
Experimental autoimmune encephalomyelitis (EAE) is an experimental mouse for multiple sclerosis.

[5] = after 24 h, one value per rat, Hydrochloride, 5 mg/kg

CNCCNS(=O)(=O)c1ccc(NC2CCCCC2)c(NCc2ccccc2)c1.Cl [Compound 37, 3-(benzylamino)-4-(cyclohexylamino)-N-(2-(methylamino)ethyl)benzenesulfonamide Hydrochloride]
IC50 [1]: 3 nM
CLint scaled at 10 µM ([2]; liver microsomes): 139 ± 6.2 mL/min/kg
half-life at 10 µM ([2]; liver microsomes): 0.45 ± 0.02 h

Cl.O=S(=O)(NCCN1CCNCC1)c1ccc(NC2CCCCC2)c(NCc2ccccc2)c1 [Compound 39, 3-(benzylamino)-4-(cyclohexylamino)-N-(2-(piperazin-1-yl)ethyl)benzenesulfonamide Hydrochloride]
IC50 [1]: 10 nM
CLint scaled at 10 µM ([2]; liver microsomes): 18 ± 7.1 mL/min/kg
half-life at 10 µM ([2]; microsomes): 3.46 h
concentration at 24 h ([3]; kidney, 5 mg/kg, after 24 h, one value per rat, read-out: Tissue distribution, Kidney): 200 ng/g
concentration at 24 h ([3]; liver, 5 mg/kg, after 24 h, one value per rat, read-out: Tissue distribution, Liver): 230 ng/g
concentration at 24 h ([3]; lung, 5 mg/kg, after 24 h, one value per rat, read-out: Tissue distribution, Lung): 480 ng/g
Concentrations in all analyzed tissues (liver, kidney, lungs) ([3]; 24 hours after administration): Significant concentrations
Tissue distribution, Kidney [3, 5]: 0.35 mg/kg organ and 0.38 mg/kg organ
Tissue distribution, Liver [3, 5]: 0.22 mg/kg organ and 0.15 mg/kg organ
Tissue distribution, Lung [3, 5]: 0.19^a mg/kg organ and 0.53 mg/kg organ
Clinical disease scores during EAE pathology [4]: ameliorates clinical signs; also recorded: improved the clinical disease scores

Cl.NCCNS(=O)(=O)c1ccc(NC2CCCCC2)c(NCc2ccccc2)c1 [Compound 38, N-(2-aminoethyl)-3-(benzylamino)-4-(cyclohexylamino)benzenesulfonamide Hydrochloride]
IC50 [1]: 12 nM
CLint scaled at 10 µM ([2]; liver microsomes): 4.8 ± 1.5 mL/min/kg
half-life at 10 µM ([2]; microsomes): 13 h
